From PMC11952222, “Development and comparison of single FLT3-inhibitors to dual FLT3/TAF1-inhibitors as an anti-leukemic approach” (PLOS One, 2025)
Values joined by “and” are separate entries in the source; they are usually repeats but may differ in a detail not shown here. Equal values may be shown once. Read-outs that look alike come from different tables or passages of the source.

Legend:
FLT3 [1] = biological target: T1, FLT3 (Homo sapiens, UniProt P36888); test: Eurofins/DiscoverX KdELECT, FLT3 kinase IC50; format: binding; details: 11-point 3-fold dilution, top concentration 10,000 nM
T1 construct: purchased Eurofins/DiscoverX
T1 sequence (P36888 27-993): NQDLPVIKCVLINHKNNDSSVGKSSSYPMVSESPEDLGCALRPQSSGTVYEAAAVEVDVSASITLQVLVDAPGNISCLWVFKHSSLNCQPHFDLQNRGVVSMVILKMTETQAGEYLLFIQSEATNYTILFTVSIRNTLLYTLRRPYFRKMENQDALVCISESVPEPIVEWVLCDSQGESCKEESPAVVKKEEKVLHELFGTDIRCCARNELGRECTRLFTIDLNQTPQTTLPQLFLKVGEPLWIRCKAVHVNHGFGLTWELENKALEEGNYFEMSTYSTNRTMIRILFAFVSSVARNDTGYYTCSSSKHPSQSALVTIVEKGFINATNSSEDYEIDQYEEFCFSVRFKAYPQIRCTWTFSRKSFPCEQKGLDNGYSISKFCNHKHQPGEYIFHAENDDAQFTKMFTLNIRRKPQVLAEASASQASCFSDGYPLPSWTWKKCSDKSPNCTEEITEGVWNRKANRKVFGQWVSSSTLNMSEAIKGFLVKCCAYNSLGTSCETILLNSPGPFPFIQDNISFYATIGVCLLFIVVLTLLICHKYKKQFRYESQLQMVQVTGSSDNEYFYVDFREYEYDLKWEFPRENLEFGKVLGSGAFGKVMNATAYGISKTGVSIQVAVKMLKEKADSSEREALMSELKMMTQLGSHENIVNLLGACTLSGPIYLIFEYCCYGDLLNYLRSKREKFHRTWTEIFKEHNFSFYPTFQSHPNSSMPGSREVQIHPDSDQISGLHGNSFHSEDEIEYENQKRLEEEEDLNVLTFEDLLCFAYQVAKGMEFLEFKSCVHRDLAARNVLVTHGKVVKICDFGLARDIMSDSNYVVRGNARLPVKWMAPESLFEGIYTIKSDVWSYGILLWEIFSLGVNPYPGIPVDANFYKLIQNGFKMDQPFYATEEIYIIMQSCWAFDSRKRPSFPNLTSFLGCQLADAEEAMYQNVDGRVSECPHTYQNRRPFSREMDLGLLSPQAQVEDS
Description: (§1) The 3i-compounds underwent activity testing against a panel of 32 bromodomains using the Eurofins/DiscoverX bromoMAX assay, with specific focus on TAF1(2) bromodomain assessed by the KdELECT assay. In a similar manner, kinase activity was evaluated using a panel of 97 kinase proteins using the Eurofins/DiscoverX scanELECT and KdELECT assays, with specific focus on FLT3 protein. An 11-point 3-fold serial dilution of each test compound was prepared in 100% DMSO at 100x final test concentration and subsequently diluted to final concentration (DMSO 1%). […] Percent control was calculated using the following formula: ((test compound signal – positive control signal)/ (negative control signal – positive control signal)) × 100.

FLT3 [2] = biological target: T1, FLT3; test: Eurofins/DiscoverX cell free kinase assay, percent control; format: binding; details: for per_control_1000nM FLT3: 1000 nM compound; for per_control_10000nM FLT3: 10000 nM compound
Description: as §1
(§2) Fig 2 Results of 3i-compound series at concentrations of 1 µM and 10 µM in a cell free Eurofins/DiscoverX assay for kinase and bromodomain proteins. (A) Single-targeted compounds with tyrosine kinase activity but without bromodomain activity. (B) Dual-targeted compounds with both tyrosine kinase and bromodomain activity.

FLT3(ITD) = test: as above; format: binding; details: for per_control_1000nM FLT3(ITD): 1000 nM compound; for per_control_10000nM FLT3(ITD): 10000 nM compound
Description: as §1, §2

FLT3(ITD,D835V) = test: as above; format: binding; details: for per_control_1000nM FLT3(ITD,D835V): 1000 nM compound; for per_control_10000nM FLT3(ITD,D835V): 10000 nM compound
Description: as §1, §2

PDGFRB = biological target: T2, PDGFRB (Homo sapiens, UniProt P09619); test: as above; format: binding; details: for per_control_1000nM PDGFRB: 1000 nM compound; for per_control_10000nM PDGFRB: 10000 nM compound
T2 construct: purchased Eurofins/DiscoverX
T2 sequence (P09619 33-1106): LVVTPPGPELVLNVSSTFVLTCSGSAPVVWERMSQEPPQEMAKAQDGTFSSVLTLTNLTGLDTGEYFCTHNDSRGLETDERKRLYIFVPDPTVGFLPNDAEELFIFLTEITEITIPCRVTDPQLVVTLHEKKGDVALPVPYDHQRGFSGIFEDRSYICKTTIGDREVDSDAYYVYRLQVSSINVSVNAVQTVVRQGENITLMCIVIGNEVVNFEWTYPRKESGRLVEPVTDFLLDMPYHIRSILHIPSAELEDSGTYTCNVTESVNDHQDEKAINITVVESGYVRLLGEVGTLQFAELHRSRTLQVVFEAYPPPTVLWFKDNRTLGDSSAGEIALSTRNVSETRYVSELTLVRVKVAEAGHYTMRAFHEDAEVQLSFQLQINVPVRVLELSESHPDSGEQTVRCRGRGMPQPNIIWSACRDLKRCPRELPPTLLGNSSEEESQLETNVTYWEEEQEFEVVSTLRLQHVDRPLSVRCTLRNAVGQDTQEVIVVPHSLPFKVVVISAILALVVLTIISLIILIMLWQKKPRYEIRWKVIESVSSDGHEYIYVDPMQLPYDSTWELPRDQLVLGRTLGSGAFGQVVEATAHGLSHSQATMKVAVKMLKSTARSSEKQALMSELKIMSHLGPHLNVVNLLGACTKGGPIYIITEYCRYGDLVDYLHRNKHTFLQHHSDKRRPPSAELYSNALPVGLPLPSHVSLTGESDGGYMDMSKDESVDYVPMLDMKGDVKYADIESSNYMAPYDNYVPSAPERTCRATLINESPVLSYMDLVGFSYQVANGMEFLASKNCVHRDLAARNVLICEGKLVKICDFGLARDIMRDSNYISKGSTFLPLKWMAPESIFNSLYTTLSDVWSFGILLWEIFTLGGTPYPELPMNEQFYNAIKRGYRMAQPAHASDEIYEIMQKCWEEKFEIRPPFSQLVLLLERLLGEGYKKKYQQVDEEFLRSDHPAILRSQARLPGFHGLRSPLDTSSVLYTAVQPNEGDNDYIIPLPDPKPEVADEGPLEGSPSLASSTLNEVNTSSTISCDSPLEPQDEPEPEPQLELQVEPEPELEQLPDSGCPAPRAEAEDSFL
Description: as §1, §2

MOLM13 cells = test: Cell viability, CellTiter Glo, MOLM13; format: cell-based; details: for IC50: 72h
Description: (§3) Drug sensitivity and resistance testing in MOLM13, DU4475, HDQP1, and IGROV1 cells was conducted at the Finnish Institute for Molecular Medicine (FIMM), University of Helsinki. In brief, the effects of compounds on cell viability and cell death were quantified with Cell-Titer Glo (Promega) and CellTox Green (Promega), respectively. Compounds or vehicle control were included in cell culture medium at described concentrations for 72h using an automated liquid dispenser in 384-well format. For KASUMI-1 experiments, cells were grown in 96-well plates and similarly incubated with compounds at indicated concentrations for 72h in RPMI + 10% FCS + Gentamicin, followed by lysis and quantification of cell viability with Cell-Titer Glo (Promega).
(§4) Raw values from viability and toxicity assays were normalized to DMSO and plotted to heat maps in R using pheatmap (RRID:SCR_016418). Dose-response curves were generated using the drc package in R [40]. In brief, nonlinear modelling was performed to calculate IC50 values for each compound where possible and resulting curves from drc and experimental values were plotted using ggplot2 (RRID:SCR_014601).

DU4475 cells = test: Cell viability, CellTiter Glo, DU4475; format: cell-based; details: for IC50: 72h; for CTG normalized_to_DMSO: fraction relative to DMSO
Description: as §3, §4

IGROV1 cells = test: Cell viability, CellTiter Glo, IGROV1; format: cell-based
Description: as §3, §4

HDQP1 cells = test: Cell viability, CellTiter Glo, HDQP1; format: cell-based
Description: as §3, §4

[3] = one independent experiment per value, read-out: MOLM13 IC50, individual dose-response curve (CellTiter Glo)
[4] = Homo sapiens, MOLM-13, 72 h, mean of n = 3 independent experiments, read-out: MOLM13 IC50 (CellTiter Glo)
[5] = one independent experiment per value, read-out: DU4475 IC50, individual dose-response curve (CellTiter Glo)
[6] = Homo sapiens, DU-4475, 72 h, mean of n = 3 independent experiments, read-out: DU4475 IC50 (CellTiter Glo)
[7] = Homo sapiens, DU-4475, 72 h, one independent experiment per value, read-out: DU4475 IC50, individual dose-response curve (CellTiter Glo)
[8] = 72h, one independent experiment per value, read-out: IGROV1 IC50, individual dose-response curve (CellTiter Glo)
[9] = Homo sapiens, IGROV-1, 72 h, one independent experiment per value, read-out: IGROV1 IC50, individual dose-response curve (CellTiter Glo)
[10] = 72h, mean of n = 3 independent experiments, read-out: HDQP1 IC50 (CellTiter Glo)
[11] = 72h, one independent experiment per value, read-out: HDQP1 IC50, individual dose-response curve (CellTiter Glo)
[12] = Homo sapiens, HDQ-P1, 72 h, one independent experiment per value, read-out: HDQP1 IC50, individual dose-response curve (CellTiter Glo)
[13] = Homo sapiens, IGROV-1, 72 h, mean of n = 3 independent experiments, read-out: IGROV1 IC50 (CellTiter Glo)

| Structure (SMILES) | IC50 (FLT3 [1]) | per_control_1000nM FLT3 (FLT3 [2]) | per_control_10000nM FLT3 (FLT3 [2]) | per_control_1000nM FLT3(ITD) (FLT3(ITD)) | per_control_10000nM FLT3(ITD) (FLT3(ITD)) | per_control_1000nM FLT3(ITD,D835V) (FLT3(ITD,D835V)) | per_control_10000nM FLT3(ITD,D835V) (FLT3(ITD,D835V)) | per_control_1000nM PDGFRB (PDGFRB) | per_control_10000nM PDGFRB (PDGFRB) | IC50 (MOLM13 cells; [3]) | IC50 (MOLM13 cells; [4]) | IC50 (DU4475 cells; [5]) | IC50 (DU4475 cells; [6]) | IC50 (DU4475 cells; [7]) | IC50 (IGROV1 cells; [8]) | IC50 (IGROV1 cells; [9]) | IC50 (HDQP1 cells; [10]) | IC50 (HDQP1 cells; [11]) | IC50 (HDQP1 cells; [12]) | IC50 (IGROV1 cells; [13]) | other results |
| --- | --- | --- | --- | --- | --- | --- | --- | --- | --- | --- | --- | --- | --- | --- | --- | --- | --- | --- | --- | --- | --- |
| COc1ccc(-c2cc(NC(=O)c3ccc(C(C)(C)C)cc3)[nH]n2)cc1 [Compound 3i-1103] | < 1 µM | 0 percent control | 0 percent control | 1.2 percent control | 2.1 percent control | 42 percent control | 6 percent control | 0 percent control | 0 percent control | 0.0934 µM and 0.0807 µM and 0.19 µM | 0.121 µM | 18.2 µM and 19 µM | 19.8 µM | 22.1 µM | > 30 µM | 17.8 µM |  |  |  |  | CTG normalized_to_DMSO (DU4475 cells; DU4475, exp 1, 0.3 µM): 1.0025; CTG normalized_to_DMSO (DU4475 cells; DU4475, exp 1, 1 µM): 0.9677; CTG normalized_to_DMSO (DU4475 cells; DU4475, exp 1, 3 µM): 0.8934; CTG normalized_to_DMSO (DU4475 cells; DU4475, exp 1, 10 µM): 0.6779; CTG normalized_to_DMSO (DU4475 cells; DU4475, exp 1, 30 µM): 0.07396 |
| Cc1cc(-c2cc(NC(=O)c3ccc(C(C)(C)C)cc3)[nH]n2)ccn1 [Compound 3i-1246, 4-(tert-butyl)-N-(3-(2-methylpyridin-4-yl)-1H-pyrazol-5-yl)benzamide] | 0.018 µM | 0 percent control | 0.2 percent control | 2.7 percent control | 1.2 percent control | 0.55 percent control | 0.2 percent control | 0 percent control | 0 percent control | 0.183 µM and 0.423 µM and 0.272 µM | 0.293 µM | 7.6 µM and 7.8 µM | 7.5 µM | 7.1 µM | 11.6 µM and 8.8 µM | 12.1 µM | > 10 µM | 10.5 µM and 19.5 µM | 10.1 µM | 10.9 µM | IC50 (HDQP1 cells; Homo sapiens, HDQ-P1, 72 h, mean of n = 3 independent experiments, read-out: HDQP1 IC50 (CellTiter Glo)): 13.4 µM |
| CC(C)(C)c1ccc(C(=O)Nc2cc(-c3ccccc3)n[nH]2)cc1 [Compound 3i-1247, 4-(tert-butyl)-N-(3-phenyl-1H-pyrazol-5-yl)benzamide] | 0.0015 µM | 12 percent control | 0 percent control | 3.2 percent control | 12 percent control | 11 percent control | 0.3 percent control | 0 percent control | 0 percent control | 0.0387 µM and 0.137 µM and 0.0424 µM |  | 2.5 µM and 2.9 µM and 2.7 µM |  |  | 3.5 µM and 3.8 µM and 2.5 µM |  |  | > 30 µM |  |  | IC50 (MOLM13 cells; mean of n = 3 independent experiments, read-out: MOLM13 IC50 (CellTiter Glo)): 0.0726 µM; anti-proliferative activity in MOLM13 cells (MOLM13 cells; comparison within the compound set): most potent compound overall; activity in DU4475 cells (DU4475 cells; compared to dual FLT3/TAF1(2) inhibitors 3i-1103, 3i-1246, 3i-1248): superior activity; IC50 (IGROV1 cells; 72h, mean of n = 3 independent experiments, read-out: IGROV1 IC50 (CellTiter Glo)): 3.3 µM |
| Cn1cc(-c2cc(NC(=O)c3ccc(C(C)(C)C)cc3)n[nH]2)ccc1=O [Compound 3i-1248, 4-(tert-butyl)-N-(5-(1-methyl-6-oxo-1,6-dihydropyridin-3-yl)-1H-pyrazol-3-yl)benzamide] | < 1 µM | 6.7 percent control | 0.15 percent control | 0 percent control | 12 percent control | 5.3 percent control | 0.15 percent control | 11 percent control | 0.35 percent control | 0.539 µM and 1.58 µM and 0.702 µM | 0.94 µM | 9.8 µM and 9.5 µM | 9.4 µM | 8.8 µM | 10.5 µM and 7.7 µM | 11.8 µM | > 10 µM | 21.1 µM and 22.1 µM | 18.8 µM | 10 µM | IC50 (HDQP1 cells; 72h, mean of n = 3 independent experiments, listed as 1248, read-out: HDQP1 IC50 (CellTiter Glo)): 20.7 µM |
